{
  "source": "patent US10093683B2",
  "about": "“Factor XIa inhibitors” (Merck Sharp & Dohme Corp., priority 2014, dated 2018)",
  "data": [
    {"molecular_target": "human Factor XIa (Homo sapiens (Human), UniProt P03951)", "sequence (P03951 388-625)": "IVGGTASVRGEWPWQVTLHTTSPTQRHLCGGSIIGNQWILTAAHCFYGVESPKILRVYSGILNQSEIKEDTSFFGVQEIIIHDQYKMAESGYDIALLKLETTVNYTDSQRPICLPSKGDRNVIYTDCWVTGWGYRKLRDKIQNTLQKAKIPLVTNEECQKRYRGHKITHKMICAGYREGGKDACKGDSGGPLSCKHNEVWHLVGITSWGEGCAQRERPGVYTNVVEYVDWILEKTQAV", "sequence (P03951 19-387 partner)": "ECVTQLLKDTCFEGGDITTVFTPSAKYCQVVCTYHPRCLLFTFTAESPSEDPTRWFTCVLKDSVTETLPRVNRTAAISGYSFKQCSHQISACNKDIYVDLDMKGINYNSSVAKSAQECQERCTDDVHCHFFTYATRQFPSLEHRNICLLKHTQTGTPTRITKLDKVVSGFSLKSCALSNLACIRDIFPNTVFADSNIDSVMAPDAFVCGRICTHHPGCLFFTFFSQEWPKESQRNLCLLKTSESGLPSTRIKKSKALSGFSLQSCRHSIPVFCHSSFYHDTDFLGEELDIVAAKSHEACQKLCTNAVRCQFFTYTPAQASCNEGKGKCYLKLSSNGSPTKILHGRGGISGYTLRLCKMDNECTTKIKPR", "assay": "Factor XIa Assay", "assay_type": "biochemical", "details": "purified human Factor XIa 40 pM, Z-Gly-Pro-Arg-AFC 100 μM, pH 7.4; read-out: FXIa Ki", "outline": "(§1)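 Ki derived from the dependence of Vo/Vi on inhibitor concentration under a competitive-inhibition model, after pre-equilibration of enzyme and inhibitor. Reaction: 40 pM human FXIa, 100 μM Z-Gly-Pro-Arg-AFC, HEPES 50 mM pH 7.4 with NaCl, CaCl2 and PEG 8000; run at room temperature or 37° C.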", "units": {"Ki": "nM"}, "values": [
      {"smiles": "Nc1nc2ccc(C(=O)N3C[C@H](F)C[C@H]3C(=O)N3CC[C@@]4(C3)OC(=O)Nc3ccc(Cl)cc34)cc2s1", "note": "[Example 291, (R)-1′-((2S,4R)-1-(2-aminobenzo[d]thiazole-6-carbonyl)-4-fluoropyrrolidine-2-carbonyl)-6-chlorospiro[benzo[d][1,3]oxazine-4,3′-pyrrolidin]-2(1H)-one]", "Ki": 4620},
      {"smiles": "COC(=O)Nc1ccc(C(=O)N[C@@H](Cc2ccccc2)C(=O)N2CC[C@]3(C2)OC(=O)Nc2ccc(C)cc23)cc1", "note": "[Example 14a, methyl (4-(((S)-1-((S)-6-methyl-2-oxo-1,2-dihydrospiro[benzo[d][1,3]oxazine-4,3′-pyrrolidin]-1′-yl)-1-oxo-3-phenylpropan-2-yl)carbamoyl)phenyl)carbamate]", "Ki": 5000},
      {"smiles": "COC(=O)Nc1ccc(-c2nc(C(Cc3ccccc3)C(=O)N3CCCC4(C3)OC(=O)Nc3ccc(Cl)c(F)c34)[nH]c2Cl)cc1", "note": "(single isomer, unassigned) [Example 126A, methyl (4-(5-chloro-2-(1-(6-chloro-5-fluoro-2-oxo-1,2-dihydrospiro[benzo[d][1,3]oxazine-4,3′-piperidin]-1′-yl)-1-oxo-3-phenylpropan-2-yl)-1H-imidazol-4-yl)phenyl)carbamate]", "Ki": 1880},
      {"smiles": "COC(=O)Nc1ccc(C(=O)NCC(=O)N2CCC3(C2)OC(=O)Nc2ccc(Cl)cc23)cc1", "note": "(racemic) [Example 23, methyl (4-((2-(6-chloro-2-oxo-1,2-dihydrospiro[benzo[d][1,3]oxazine-4,3′-pyrrolidin]-1′-yl)-2-oxoethyl)carbamoyl)phenyl)carbamate]", "Ki": 248},
      {"smiles": "COC(=O)Nc1ccc(C(=O)N[C@H](C(=O)N2CCC3(C2)OC(=O)Nc2ccc(Cl)cc23)c2ccccc2)cc1", "note": "(stereo partly drawn) [Example 29, methyl (4-(((1S)-2-(6-chloro-2-oxo-1,2-dihydrospiro[benzo[d][1,3]oxazine-4,3′-pyrrolidin]-1′-yl)-2-oxo-1-phenylethyl)carbamoyl)phenyl)carbamate]", "Ki": "≥ 5000"},
      {"smiles": "COC(=O)Nc1ccc(C(=O)N[C@@H](CC2CCCCC2)C(=O)N2CCC3(C2)OC(=O)Nc2ccc(Cl)cc23)cc1", "note": "(stereo partly drawn) [Example 34, methyl (4-(((2S)-1-(6-chloro-2-oxo-1,2-dihydrospiro[benzo[d][1,3]oxazine-4,3′-pyrrolidin]-1′-yl)-3-cyclohexyl-1-oxopropan-2-yl)carbamoyl)phenyl)carbamate]", "Ki": 90},
      {"smiles": "O=C1Nc2ccc(Cl)cc2[C@@]2(CCCN(C(=O)C(Cc3ccc(F)cc3)c3nc4ccc(C(=O)O)cc4[nH]3)C2)O1", "note": "(single isomer, unassigned) [Example 132A (isomer A)]", "Ki": 61.7},
      {"smiles": "COC(=O)Nc1ccc(-c2nnc(C(Cc3ccccc3)C(=O)N3CC[C@@]4(C3)OC(=O)Nc3ccc(Cl)c(F)c34)o2)cc1", "note": "(single isomer, unassigned) [Example 129B]", "Ki": 320},
      {"smiles": "COC(=O)Nc1ccc2onc(N[C@@H](Cc3ccccc3)C(=O)N3CCC[C@@]4(C3)OC(=O)Nc3ccc(Cl)cc34)c2c1", "note": "[Example 138, methyl (3-(((S)-1-((R)-6-chloro-2-oxo-1,2-dihydrospiro[benzo[d][1,3]oxazine-4,3′-piperidin]-1′-yl)-1-oxo-3-phenylpropan-2-yl)amino)benzo[d]isoxazol-5-yl)carbamate]", "Ki": 8750},
      {"smiles": "COC(=O)Nc1ccc(C(=O)NC(C[C@H]2CCCO2)C(=O)N2CCC[C@@]3(C2)OC(=O)Nc2ccc(Cl)c(F)c23)cc1", "note": "(single isomer, unassigned) [Example 117B]", "Ki": 99.9},
      {"smiles": "COC(=O)Nc1ccc(C(=O)N[C@@H](Cc2ccccc2)C(=O)N2CCC[C@@]3(C2)OC(=O)Nc2c(F)cc(Cl)cc23)cc1", "note": "[Example 12, methyl (4-(((S)-1-((R)-6-chloro-8-fluoro-2-oxo-1,2-dihydrospiro[benzo[d][1,3]oxazine-4,3′-piperidin]-1′-yl)-1-oxo-3-phenylpropan-2-yl)carbamoyl)phenyl)carbamate]", "Ki": 109}
    ]},
    {"molecular_target": "human Factor XIa (Homo sapiens (Human), UniProt P03951)", "assay": "Factor XIa Assay", "assay_type": "biochemical", "details": "read-out: FXIa Ki", "outline": "as §1", "units": {"Ki": "nM"}, "values": [
      {"smiles": "CS(=O)(=O)Nc1ccc(C(=O)N[C@@H](Cc2ccccc2)C(=O)N2CCC3(C2)OC(=O)Nc2ccc(Cl)cc23)cc1", "note": "(stereo partly drawn) [Example 163, N-((2S)-1-(6-chloro-2-oxo-1,2-dihydrospiro[benzo[d][1,3]oxazine-4,3′-pyrrolidin]-1′-yl)-1-oxo-3-phenylpropan-2-yl)-4-(methylsulfonamido)benzamide]", "Ki": 63.2},
      {"smiles": "COCCOC(=O)Nc1ccc(C(=O)N[C@@H](Cc2ccccc2)C(=O)N2CCC3(C2)OC(=O)Nc2ccc(Cl)cc23)cn1", "note": "(stereo partly drawn) [Example 186]", "Ki": 166},
      {"smiles": "Cc1nccnc1C(=O)N[C@@H](Cc1ccccc1)C(=O)N1CCC2(C1)OC(=O)Nc1ccc(Cl)cc12", "note": "(stereo partly drawn) [Example 145]", "Ki": 3320},
      {"smiles": "Nc1ccc2cc(C(=O)N[C@@H](Cc3ccccc3)C(=O)N3CCC4(C3)OC(=O)Nc3ccc(Cl)cc34)ccc2n1", "note": "(stereo partly drawn) [Example 261]", "Ki": 4050},
      {"smiles": "O=C1Nc2ccc(Cl)c(F)c2[C@@]2(CCCN(C(=O)[C@H](Cc3ccccc3)NC(=O)c3ccc(NCC(F)(F)F)nc3)C2)O1", "note": "[Example 212]", "Ki": 133},
      {"smiles": "O=C1Nc2ccc(Cl)cc2C2(CCN(C(=O)[C@H](Cc3ccccc3)NC(=O)C3(c4ccc(C(=O)O)cc4)CC3)C2)O1", "note": "(stereo partly drawn) [Example 161]", "Ki": 4490},
      {"smiles": "O=C1Nc2ccc(Cl)c(F)c2[C@@]2(CCCN(C(=O)[C@H](Cc3cccc(F)c3)NC(=O)c3ccc(C(=O)NCCP(=O)(O)O)cc3)C2)O1", "note": "[Example 273, (2-(4-(((S)-1-((R)-6-Chloro-5-fluoro-2-oxo-1,2-dihydrospiro[benzo[d][1,3]oxazine-4,3′-piperidin]-1′-yl)-3-(3-fluorophenyl)-1-oxopropan-2-yl)carbamoyl)benzamido)ethyl)phosphonic acid]", "Ki": 367},
      {"smiles": "CCOP(=O)(OCC)c1ccc(C(=O)N[C@H](Cc2ccccc2)C(=O)N2CCC[C@@]3(C2)OC(=O)Nc2ccc(Cl)c(F)c23)cc1", "note": "[Example 229, diethyl (4-(((R)-1-((R)-6-chloro-5-fluoro-2-oxo-1,2-dihydrospiro[benzo[d][1,3]oxazine-4,3′-piperidin]-1′-yl)-1-oxo-3-phenylpropan-2-yl)carbamoyl)phenyl)phosphonate]", "Ki": 8750},
      {"smiles": "Nc1nc(C(=O)N[C@@H](Cc2ccccc2)C(=O)N2CCC3(C2)OC(=O)Nc2ccc(Cl)cc23)cs1", "note": "(stereo partly drawn) [Example 175]", "Ki": 212},
      {"smiles": "O=C1Nc2ccc(Cl)c(F)c2[C@@]2(CCCN(C(=O)[C@H](CC3CC3)NC(=O)c3ccc4[nH]c(=O)cc(O)c4c3)C2)O1", "note": "[Example 210]", "Ki": 0.22},
      {"smiles": "COC(=O)Nc1ccc(C(N[C@@H](Cc2ccccc2)C(=O)N2CCC3(C2)OC(=O)Nc2ccc(Cl)cc23)C(F)(F)F)cc1", "note": "(stereo partly drawn) [Example 223, Methyl (4-(1-(((S)-1-((R)-6-chloro-2-oxo-1,2-dihydrospiro[benzo[d][1,3]oxazine-4,3′-pyrrolidin]-1′-yl)-1-oxo-3-phenylpropan-2-yl)amino)-2,2,2-trifluoroethyl)phenyl)carbamate]", "Ki": 8750},
      {"smiles": "O=C1Nc2ccc(Cl)cc2[C@@]2(CCCN(C(=O)[C@H](CC3CC3)NC(=O)c3ccc(F)c(F)c3)C2)O1", "note": "[Example 202, N-((S)-1-((R)-6-chloro-2-oxo-1,2-dihydrospiro[benzo[d][1,3]oxazine-4,3′-piperidin]-1′-yl)-3-cyclopropyl-1-oxopropan-2-yl)-3,4-difluorobenzamide]", "Ki": 925},
      {"smiles": "O=C1Nc2ccc(Cl)cc2C2(CCN(C(=O)[C@H](Cc3ccccc3)NC(=O)c3ccc(-c4nnn[nH]4)cc3)C2)O1", "note": "(stereo partly drawn) [Example 151, N-((2S)-1-(6-chloro-2-oxo-1,2-dihydrospiro[benzo[d][1,3]oxazine-4,3′-pyrrolidin]-1′-yl)-1-oxo-3-phenylpropan-2-yl)-4-(1H-tetrazol-5-yl)benzamide]", "Ki": 1780}
    ]}
  ]
}
